Earlier results as cited in patent US5977138A, “Ether muscarinic antagonists” (Schering Corporation, priority 1997, dated 1999).

System: m2 muscarinic receptor
Conditions: Baumgold et al., Eur. J. of Pharmacol., 251 (1994) 315-317

C[C@H]1CC[C@@H]2N(C1)C[C@H]1[C@@H]3C[C@H]4[C@@H](CC(=O)[C@H]5C[C@@H](Cl)CC[C@@]54C)[C@@H]3CC[C@H]1[C@]2(C)O [3-α-chloroimperialine]
m2 selective muscarinic antagonism: highly selective m2 muscarinic antagonist
